# Assays:
# Assay type in all cases: in vivo
# Details in all cases: active ingredient amount 31 g/ha, 14th day after application
# [1] = system: soybean (Glycine max Merr.); assay: Test Example 2: soil application on the day after sowing, growth inhibition rate on 14th day
# How it was run: (§1)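 Upland soil pots; sowing, then next-day soil spraying of compound formulations (1,000 L/ha water) at defined a.i. doses. Day-14 visual rating of inhibition on a 0–100 scale, where 100 means complete kill.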
# [2] = system: velvetleaf (Abutilon theophrasti MEDIC.); assay: as above
# How it was run: as §1
# [3] = system: green foxtail (Setaria viridis L.); assay: as above
# How it was run: as §1
# corn (Zea mays L.) [4] = assay: as above
# How it was run: as §1
# [5] = system: prickly sida (Sida spinosa L.); assay: as above
# How it was run: as §1
# rice (Oryza sativa L.) [6] = assay: as above
# How it was run: as §1
# [7] = system: wheat (Triticum aestivum L.); assay: as above
# How it was run: as §1
# [8] = system: redroot pigweed (Amaranthus retroflexus L.); assay: as above
# How it was run: as §1
# [9] = system: crabgrass (Digitaris sanquinalis L.); assay: as above
# How it was run: as §1
# [10] = system: barnyardgrass (Echinochloa crus-qalli L.); assay: as above
# How it was run: as §1
# [11] = system: soybean (Glycine max Merr.); assay: Test Example 1: foliar treatment, growth inhibition rate on 14th day
# How it was run: (§2)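 Visual 0–100% inhibition scoring (100 = complete kill) at 14 days after foliar treatment of soil-grown seedlings at species-specific leaf stages, with the compound sprayed as a wettable powder or emulsifiable concentrate dilution.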
# [12] = system: green foxtail (Setaria viridis L.); assay: as above
# How it was run: as §2
# [13] = system: wild oat (Avena fatua L.); assay: as above
# How it was run: as §2
# corn (Zea mays L.) [14] = assay: as above
# How it was run: as §2
# rice (Oryza sativa L.) [15] = assay: as above
# How it was run: as §2
# [16] = system: wheat (Triticum aestivum L.); assay: as above
# How it was run: as §2
# [17] = system: redroot pigweed (Amaranthus retroflexus L.); assay: as above
# How it was run: as §2
# [18] = system: crabgrass (Digitaria sanquinalis L.); assay: as above
# How it was run: as §2
# [19] = system: barnyardgrass (Echinochloa crus-qalli L.); assay: as above
# How it was run: as §2
# [20] = system: italian ryegrass (Lolium multiflorum Lam.); assay: as above
# How it was run: as §2
# [21] = visual, 0 = non-treated, 100 = complete kill
smiles,measurement,setting,value
Cc1ccc(Oc2ncc(C(F)(F)F)cc2C(F)(F)F)cc1-c1c(O)c(C)nn(C)c1=O [Compound 2-84],Growth inhibition rate (%) Soybean,[1],0%
same,Growth inhibition rate (%) Velvetleaf,[2],0%
same,Growth inhibition rate (%) Green foxtail,[3],100%
same,Growth inhibition rate (%) Corn,corn (Zea mays L.) [4],0%
same,Growth inhibition rate (%) Prickly sida,[5],0%
same,Growth inhibition rate (%) Rice,rice (Oryza sativa L.) [6],60%
same,Growth inhibition rate (%) Wheat,[7],0%
same,Growth inhibition rate (%) Redroot pigweed,[8],0%
same,Growth inhibition rate (%) Crabgrass,[9],100%
same,Growth inhibition rate (%) Barnyardgrass,[10],100%
same,Growth inhibition rate (%) Soybean,[11],0%
same,Growth inhibition rate (%) Green foxtail,[12],100%
same,Growth inhibition rate (%) Wild oat,[13],99%
same,Growth inhibition rate (%) Corn,corn (Zea mays L.) [14],90%
same,Growth inhibition rate (%) Rice,rice (Oryza sativa L.) [15],0%
same,Growth inhibition rate (%) Wheat,[16],0%
same,Growth inhibition rate (%) Redroot pigweed,[17],0%
same,Growth inhibition rate (%) Crabgrass,[18],100%
same,Growth inhibition rate (%) Barnyardgrass,[19],99%
same,Growth inhibition rate (%) Italian ryegrass,[20],93%
COCC(=O)Oc1c(C)nn(C)c(=O)c1-c1cc(Oc2cnc3cc(Cl)ccc3n2)ccc1C [Compound 3-45],Growth inhibition rate (%) Soybean,[1],0%
same,Growth inhibition rate (%) Velvetleaf,[2],0%
same,Growth inhibition rate (%) Green foxtail,[3],85%
same,Growth inhibition rate (%) Corn,corn (Zea mays L.) [4],0%
same,Growth inhibition rate (%) Prickly sida,[5],0%
same,Growth inhibition rate (%) Rice,rice (Oryza sativa L.) [6],25%
same,Growth inhibition rate (%) Wheat,[7],0%
same,Growth inhibition rate (%) Redroot pigweed,[8],0%
same,Growth inhibition rate (%) Crabgrass,[9],20%
same,Growth inhibition rate (%) Barnyardgrass,[10],95%
same,Growth inhibition rate (%) Soybean,[11]; [21],25%
same,Growth inhibition rate (%) Green foxtail,[12]; [21],99%
same,Growth inhibition rate (%) Wild oat,[13]; [21],100%
same,Growth inhibition rate (%) Corn,corn (Zea mays L.) [14]; [21],45%
same,Growth inhibition rate (%) Rice,rice (Oryza sativa L.) [15]; [21],98%
same,Growth inhibition rate (%) Wheat,[16]; [21],98%
same,Growth inhibition rate (%) Redroot pigweed,[17]; [21],0%
same,Growth inhibition rate (%) Crabgrass,[18]; [21],99%
same,Growth inhibition rate (%) Barnyardgrass,[19]; [21],100%
same,Growth inhibition rate (%) Italian ryegrass,[20]; [21],100%
CC(=O)Oc1c(C)nn(C)c(=O)c1-c1cc(Oc2ncc(Cl)cc2F)ccc1C [Compound 2-59],Growth inhibition rate (%) Soybean,[1],0%
same,Growth inhibition rate (%) Velvetleaf,[2],0%
same,Growth inhibition rate (%) Green foxtail,[3],40%
same,Growth inhibition rate (%) Corn,corn (Zea mays L.) [4],0%
same,Growth inhibition rate (%) Prickly sida,[5],0%
same,Growth inhibition rate (%) Rice,rice (Oryza sativa L.) [6],0%
same,Growth inhibition rate (%) Wheat,[7],0%
same,Growth inhibition rate (%) Redroot pigweed,[8],0%
same,Growth inhibition rate (%) Crabgrass,[9],70%
same,Growth inhibition rate (%) Barnyardgrass,[10],75%
same,Growth inhibition rate (%) Soybean,[11],0%
same,Growth inhibition rate (%) Green foxtail,[12],83%
same,Growth inhibition rate (%) Wild oat,[13],95%
same,Growth inhibition rate (%) Corn,corn (Zea mays L.) [14],90%
same,Growth inhibition rate (%) Rice,rice (Oryza sativa L.) [15],90%
same,Growth inhibition rate (%) Wheat,[16],40%
same,Growth inhibition rate (%) Redroot pigweed,[17],0%
same,Growth inhibition rate (%) Crabgrass,[18],83%
same,Growth inhibition rate (%) Barnyardgrass,[19],99%
same,Growth inhibition rate (%) Italian ryegrass,[20],90%
Cc1ccc(Oc2nc3ccc(Cl)cc3o2)cc1-c1c(O)cnn(C)c1=O [Compound 2-163],Growth inhibition rate (%) Soybean,[1],0%
same,Growth inhibition rate (%) Velvetleaf,[2],0%
same,Growth inhibition rate (%) Green foxtail,[3],99%
same,Growth inhibition rate (%) Corn,corn (Zea mays L.) [4],15%
same,Growth inhibition rate (%) Prickly sida,[5],0%
same,Growth inhibition rate (%) Rice,rice (Oryza sativa L.) [6],20%
same,Growth inhibition rate (%) Wheat,[7],20%
same,Growth inhibition rate (%) Redroot pigweed,[8],0%
same,Growth inhibition rate (%) Crabgrass,[9],98%
same,Growth inhibition rate (%) Barnyardgrass,[10],98%
same,Growth inhibition rate (%) Soybean,[11],35%
same,Growth inhibition rate (%) Green foxtail,[12],100%
same,Growth inhibition rate (%) Wild oat,[13],75%
same,Growth inhibition rate (%) Corn,corn (Zea mays L.) [14],80%
same,Growth inhibition rate (%) Rice,rice (Oryza sativa L.) [15],35%
same,Growth inhibition rate (%) Wheat,[16],10%
same,Growth inhibition rate (%) Redroot pigweed,[17],0%
same,Growth inhibition rate (%) Crabgrass,[18],95%
same,Growth inhibition rate (%) Barnyardgrass,[19],100%
same,Growth inhibition rate (%) Italian ryegrass,[20],88%
C=CC(=O)Oc1c(C)nn(C)c(=O)c1-c1cc(Oc2cnc3cc(Cl)ccc3n2)ccc1C [Compound 3-49],Growth inhibition rate (%) Soybean,[1],0%
same,Growth inhibition rate (%) Velvetleaf,[2],0%
same,Growth inhibition rate (%) Green foxtail,[3],85%
same,Growth inhibition rate (%) Corn,corn (Zea mays L.) [4],0%
same,Growth inhibition rate (%) Prickly sida,[5],0%
same,Growth inhibition rate (%) Rice,rice (Oryza sativa L.) [6],0%
same,Growth inhibition rate (%) Wheat,[7],10%
same,Growth inhibition rate (%) Redroot pigweed,[8],0%
same,Growth inhibition rate (%) Crabgrass,[9],20%
same,Growth inhibition rate (%) Barnyardgrass,[10],95%
same,Growth inhibition rate (%) Soybean,[11]; [21],20%
same,Growth inhibition rate (%) Green foxtail,[12]; [21],100%
same,Growth inhibition rate (%) Wild oat,[13]; [21],98%
same,Growth inhibition rate (%) Corn,corn (Zea mays L.) [14]; [21],45%
same,Growth inhibition rate (%) Rice,rice (Oryza sativa L.) [15]; [21],50%
same,Growth inhibition rate (%) Wheat,[16]; [21],99%
same,Growth inhibition rate (%) Redroot pigweed,[17]; [21],0%
same,Growth inhibition rate (%) Crabgrass,[18]; [21],100%
same,Growth inhibition rate (%) Barnyardgrass,[19]; [21],99%
same,Growth inhibition rate (%) Italian ryegrass,[20]; [21],100%
Cc1ccc(Oc2nc3ccc(Cl)cc3o2)cc1-c1c(O)c(C)nn(C)c1=O [Compound 2-8],Growth inhibition rate (%) Soybean,[1],0%
same,Growth inhibition rate (%) Velvetleaf,[2],0%
same,Growth inhibition rate (%) Green foxtail,[3],100%
same,Growth inhibition rate (%) Corn,corn (Zea mays L.) [4],0%
same,Growth inhibition rate (%) Prickly sida,[5],0%
same,Growth inhibition rate (%) Rice,rice (Oryza sativa L.) [6],20%
same,Growth inhibition rate (%) Wheat,[7],0%
same,Growth inhibition rate (%) Redroot pigweed,[8],0%
same,Growth inhibition rate (%) Crabgrass,[9],95%
same,Growth inhibition rate (%) Barnyardgrass,[10],100%
same,Growth inhibition rate (%) Soybean,[11],0%
same,Growth inhibition rate (%) Green foxtail,[12],99%
same,Growth inhibition rate (%) Wild oat,[13],65%
same,Growth inhibition rate (%) Corn,corn (Zea mays L.) [14],10%
same,Growth inhibition rate (%) Rice,rice (Oryza sativa L.) [15],15%
same,Growth inhibition rate (%) Wheat,[16],25%
same,Growth inhibition rate (%) Redroot pigweed,[17],0%
same,Growth inhibition rate (%) Crabgrass,[18],100%
same,Growth inhibition rate (%) Barnyardgrass,[19],100%
same,Growth inhibition rate (%) Italian ryegrass,[20],83%
CC(=O)Oc1c(C)nn(C)c(=O)c1-c1cc(Oc2nc3ccccc3o2)ccc1C [Compound 2-138],Growth inhibition rate (%) Soybean,[1],0%
same,Growth inhibition rate (%) Velvetleaf,[2],0%
same,Growth inhibition rate (%) Green foxtail,[3],90%
same,Growth inhibition rate (%) Corn,corn (Zea mays L.) [4],0%
same,Growth inhibition rate (%) Prickly sida,[5],0%
same,Growth inhibition rate (%) Rice,rice (Oryza sativa L.) [6],25%
same,Growth inhibition rate (%) Wheat,[7],0%
same,Growth inhibition rate (%) Redroot pigweed,[8],0%
same,Growth inhibition rate (%) Crabgrass,[9],83%
same,Growth inhibition rate (%) Barnyardgrass,[10],93%
same,Growth inhibition rate (%) Soybean,[11],0%
same,Growth inhibition rate (%) Green foxtail,[12],65%
same,Growth inhibition rate (%) Wild oat,[13],20%
same,Growth inhibition rate (%) Corn,corn (Zea mays L.) [14],15%
same,Growth inhibition rate (%) Rice,rice (Oryza sativa L.) [15],35%
same,Growth inhibition rate (%) Wheat,[16],10%
same,Growth inhibition rate (%) Redroot pigweed,[17],0%
same,Growth inhibition rate (%) Crabgrass,[18],65%
same,Growth inhibition rate (%) Barnyardgrass,[19],90%
same,Growth inhibition rate (%) Italian ryegrass,[20],20%

# Source: US10870638B2, “Pyridazinone compound or its salt, and herbicide containing it” (ISHIHARA SANGYO KAISHA, LTD., priority 2016, dated 2020)
